Assays:
Adenosine receptor A1 [1] = target: T1, Adenosine receptor A1 (Homo sapiens, UniProt P30542); assay: Displacement of [3H]DPCPX from A1 adenosine receptor (unknown origin) expressed in CHO cell membrane incubated for 60 mins at room temperature by NXT microplate scintillation counter analysis; type: cell membranes
T1 sequence (P30542 whole entry): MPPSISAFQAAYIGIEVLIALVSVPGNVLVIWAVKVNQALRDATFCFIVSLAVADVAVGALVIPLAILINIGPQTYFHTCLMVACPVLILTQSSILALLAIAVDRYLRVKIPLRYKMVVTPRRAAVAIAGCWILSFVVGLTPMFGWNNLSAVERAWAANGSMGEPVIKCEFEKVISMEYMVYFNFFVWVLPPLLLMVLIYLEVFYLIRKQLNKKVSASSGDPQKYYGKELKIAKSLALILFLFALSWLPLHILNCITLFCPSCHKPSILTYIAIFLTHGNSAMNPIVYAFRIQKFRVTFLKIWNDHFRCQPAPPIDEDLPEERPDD

in vitro = details: human, liver microsomes
Description: Stability of the compound in human liver microsome assessed as compound remaining measured after 60 mins by UPLC-MS/MS analysis

Adenosine receptor A2a [2] = target: T2, Adenosine receptor A2a (Homo sapiens, UniProt P29274)
Adenosine receptor A1 [3] = target: T1, Adenosine receptor A1
Adenosine receptor A2a [4] = target: T2, Adenosine receptor A2a; remark: listed apart in the source

T2 sequence (P29274 whole entry): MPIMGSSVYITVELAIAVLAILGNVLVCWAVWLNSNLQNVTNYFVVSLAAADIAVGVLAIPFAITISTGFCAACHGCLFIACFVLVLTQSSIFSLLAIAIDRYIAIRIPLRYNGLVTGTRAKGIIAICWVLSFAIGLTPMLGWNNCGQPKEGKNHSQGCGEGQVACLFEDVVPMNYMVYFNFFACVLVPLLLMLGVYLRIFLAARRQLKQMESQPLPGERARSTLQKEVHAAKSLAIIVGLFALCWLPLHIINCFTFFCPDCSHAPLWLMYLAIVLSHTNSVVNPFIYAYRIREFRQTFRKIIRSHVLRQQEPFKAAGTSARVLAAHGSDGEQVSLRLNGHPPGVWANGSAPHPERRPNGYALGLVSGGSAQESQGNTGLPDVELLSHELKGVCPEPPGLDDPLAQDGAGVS

Nc1nc(-c2ccccc2)c2c(n1)-c1ccccc1C2=O
Ki (Adenosine receptor A1 [1]): 0.1 nM

C[C@]12CC[C@H]3[C@@H](CCC4=CC(=O)CC[C@@]43C)[C@@H]1CC[C@@H]2O [TESTOSTERONE]
remaining at 1 h (in vitro): 3.7%

N#Cc1c(-c2ccccc2)nc(NC(=O)C2CCCC2)nc1-c1ccc2c(c1)OCO2
Ki (Adenosine receptor A2a [2]): 159 nM

N#Cc1c(-c2ccccc2)nc(Nc2ccccc2)nc1-c1cccc(O)c1
Ki (Adenosine receptor A1 [3]): 18.3 nM
Ki (Adenosine receptor A2a [4]): 71.2 nM

— ChEMBL document CHEMBL5042528, “Optimization of 2-Amino-4,6-diarylpyrimidine-5-carbonitriles as Potent and Selective A1 Antagonists” (J Med Chem, 2022)
